Measured values: patent publication US20230257351A1, “SUBSTITUTED N-[…] HAVING P2X4 RECEPTOR ANTAGONISTIC ACTIVITY” (Bayer Aktiengesellschaft, priority 2020, published 2023)

Target: T1, human P2X4 (Homo sapiens, UniProt Q99571)
T1 construct: expressed in transfected cells
T1 sequence (Q99571 1-388): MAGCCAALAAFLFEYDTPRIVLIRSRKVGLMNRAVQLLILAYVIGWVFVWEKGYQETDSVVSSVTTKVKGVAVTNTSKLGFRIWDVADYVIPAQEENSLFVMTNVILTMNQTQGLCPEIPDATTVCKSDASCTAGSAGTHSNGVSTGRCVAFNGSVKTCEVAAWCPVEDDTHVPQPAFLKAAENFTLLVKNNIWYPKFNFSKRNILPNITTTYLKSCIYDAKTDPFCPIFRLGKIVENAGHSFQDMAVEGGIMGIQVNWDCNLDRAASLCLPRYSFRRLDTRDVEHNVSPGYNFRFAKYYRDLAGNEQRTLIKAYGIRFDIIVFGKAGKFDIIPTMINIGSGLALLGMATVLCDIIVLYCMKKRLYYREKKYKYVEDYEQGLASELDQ
Assay: Human P2X4 HEK Cell FLIPR Assay
Type: cell-based
Conditions: HEK293 stably expressing human P2X4, agonist Bz-ATP 3 μM (EC80); for IC50: read-out: Human P2X4 HEK Cells (FLIPR Assay) avg IC50
Outline: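 HEK293 cells stably expressing human P2X4 were loaded with Fluo8-AM (30 min, 37 °C, HBSS/HEPES pH 7.4 with probenecid), then preincubated 30 min at room temperature with compound, 25 μM–1 nM final, 0.5% DMSO. Bz-ATP-evoked calcium fluorescence was read on FLIPR; data were normalized to agonist control and given a four-parameter fit for IC50.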

SMILES | Human P2X4 HEK Cells (FLIPR Assay) avg Efficacy | IC50
CC(=O)N(c1cc(NC(=O)Cc2c(F)cccc2Cl)ccn1)c1ccc(F)c(C)c1C [Example 184, N-{4-[2-(2-Chlor-6-fluorphenyl)acetamido]pyridin-2-yl}-N-(4-fluor-2,3-dimethylphenyl)acetamide] | 104% | 893 nM
CC(=O)N(c1ccccc1)c1cc(NC(=O)Cc2c(Cl)cccc2Cl)cnn1 [Example 185, N-{5-[2-(2,6-dichlorophenyl)acetamido]pyridazin-3-yl}-N-phenylacetamide] | 101% | 438 nM
CC(=O)N(c1ccccc1)c1cc(NC(=O)Cc2cccc(F)c2Cl)cnn1 [Example 186, N-{5-[2-(2-chloro-3-fluorophenyl)acetamido]pyridazin-3-yl}-N-phenylacetamide] | 99% | 655 nM
CC(=O)N(c1ccccc1)c1cc(NC(=O)Cc2ccccc2Cl)cnn1 [Example 187, N-{5-[2-(2-chlorophenyl)acetamido]pyridazin-3-yl}-N-phenylacetamide] | 100% | 700 nM
CC(=O)N(c1ccccc1)c1cc(NC(=O)Cc2ccc(F)cc2Cl)cnn1 [Example 188, N-{5-[2-(2-chloro-4-fluorophenyl)acetamido]pyridazin-3-yl}-N-phenylacetamide] | 98% | 829 nM
CC(=O)N(c1ccc(F)cc1)c1cc(NC(=O)Cc2c(F)cccc2Cl)cnn1 [Example 189, N-{5-[2-(2-chloro-6-fluorophenyl)acetamido]pyridazin-3-yl}-N-(4-fluorophenyl)acetamide] | 93% | 654 nM
CC(=O)N(c1ccc(F)cc1)c1cc(NC(=O)Cc2ccc(F)cc2Cl)cnn1 [Example 190, N-{5-[2-(2-chloro-4-fluorophenyl)acetamido]pyridazin-3-yl}-N-(4-fluorophenyl)acetamide] | 95% | 716 nM
CC(=O)N(c1ccc(F)cc1)c1cc(NC(=O)Cc2cccc(F)c2Cl)cnn1 [Example 191, N-{5-[2-(2-chloro-3-fluorophenyl)acetamido]pyridazin-3-yl}-N-(4-fluorophenyl)acetamide] | 92% | 739 nM
CC(=O)N(c1ccc(F)cc1)c1cc(NC(=O)Cc2ccccc2Cl)cnn1 [Example 192, N-{5-[2-(2-chlorophenyl)acetamido]pyridazin-3-yl}-N-(4-fluorophenyl)acetamide] | 90% | 766 nM
CC(=O)N(c1ccc(F)cc1)c1cc(NC(=O)Cc2c(Cl)cccc2Cl)cnn1 [Example 193, N-{5-[2-(2,6-dichlorophenyl)acetamido]pyridazin-3-yl}-N-(4-fluorophenyl)acetamide] | 93% | 868 nM
CC(=O)N(c1cccc(F)c1)c1cc(NC(=O)Cc2c(Cl)cccc2Cl)cnn1 [Example 194, N-{5-[2-(2,6-dichlorophenyl)acetamido]pyridazin-3-yl}-N-(3-fluorophenyl)acetamide] | 96% | 407 nM
CC(=O)N(c1cccc(F)c1)c1cc(NC(=O)Cc2cccc(F)c2Cl)cnn1 [Example 195, N-{5-[2-(2-chloro-3-fluorophenyl)acetamido]pyridazin-3-yl}-N-(3-fluorophenyl)acetamide] | 95% | 486 nM
CC(=O)N(c1cccc(F)c1)c1cc(NC(=O)Cc2ccccc2Cl)cnn1 [Example 196, N-{5-[2-(2-chlorophenyl)acetamido]pyridazin-3-yl}-N-(3-fluorophenyl)acetamide] | 94% | 546 nM
CC(=O)N(c1cccc(F)c1)c1cc(NC(=O)Cc2c(F)cccc2Cl)cnn1 [Example 197, N-{5-[2-(2-chloro-6-fluorophenyl)acetamido]pyridazin-3-yl}-N-(3-fluorophenyl)acetamide] | 93% | 674 nM
CC(=O)N(c1cccc(F)c1)c1cc(NC(=O)Cc2ccc(F)cc2Cl)cnn1 [Example 198, N-{5-[2-(2-chloro-4-fluorophenyl)acetamido]pyridazin-3-yl}-N-(3-fluorophenyl)acetamide] | 96% | 943 nM
CC(=O)N(c1ccc(F)c(F)c1)c1cc(NC(=O)Cc2ccccc2Cl)cnn1 [Example 199, N-{5-[2-(2-chlorophenyl)acetamido]pyridazin-3-yl}-N-(3,4-difluorophenyl)acetamide] | 86% | 447 nM
CC(=O)N(c1ccc(F)c(F)c1)c1cc(NC(=O)Cc2c(Cl)cccc2Cl)cnn1 [Example 200, N-{5-[2-(2,6-dichlorophenyl)acetamido]pyridazin-3-yl}-N-(3,4-difluorophenyl)acetamide] | 91% | 465 nM
CC(=O)N(c1ccc(F)c(F)c1)c1cc(NC(=O)Cc2cccc(F)c2Cl)cnn1 [Example 201, N-{5-[2-(2-chloro-3-fluorophenyl)acetamido]pyridazin-3-yl}-N-(3,4-difluorophenyl)acetamide] | 89% | 510 nM
CC(=O)N(c1ccc(F)c(F)c1)c1cc(NC(=O)Cc2ccc(F)cc2Cl)cnn1 [Example 202, N-{5-[2-(2-chloro-4-fluorophenyl)acetamido]pyridazin-3-yl}-N-(3,4-difluorophenyl)acetamide] | 94% | 557 nM
CC(=O)N(c1ccc(F)c(F)c1)c1cc(NC(=O)Cc2c(F)cccc2Cl)cnn1 [Example 203, N-{5-[2-(2-chloro-6-fluorophenyl)acetamido]pyridazin-3-yl}-N-(3,4-difluorophenyl)acetamide] | 86% | 737 nM
CC(=O)N(c1cc(F)cc(F)c1)c1cc(NC(=O)Cc2c(Cl)cccc2Cl)cnn1 [Example 204, N-{5-[2-(2,6-dichlorophenyl)acetamido]pyridazin-3-yl}-N-(3,5-difluorophenyl)acetamide] | 95% | 383 nM
CC(=O)N(c1cc(F)cc(F)c1)c1cc(NC(=O)Cc2ccccc2Cl)cnn1 [Example 205, N-{5-[2-(2-chlorophenyl)acetamido]pyridazin-3-yl}-N-(3,5-difluorophenyl)acetamide] | 93% | 433 nM
CC(=O)N(c1cc(F)cc(F)c1)c1cc(NC(=O)Cc2cccc(F)c2Cl)cnn1 [Example 206, N-{5-[2-(2-chloro-3-fluorophenyl)acetamido]pyridazin-3-yl}-N-(3,5-difluorophenyl)acetamide] | 93% | 449 nM
CC(=O)N(c1cc(F)cc(F)c1)c1cc(NC(=O)Cc2ccc(F)cc2Cl)cnn1 [Example 207, N-{5-[2-(2-chloro-4-fluorophenyl)acetamido]pyridazin-3-yl}-N-(3,5-difluorophenyl)acetamide] | 96% | 477 nM
CC(=O)N(c1cc(F)cc(F)c1)c1cc(NC(=O)Cc2c(F)cccc2Cl)cnn1 [Example 208, N-{5-[2-(2-chloro-6-fluorophenyl)acetamido]pyridazin-3-yl}-N-(3,5-difluorophenyl)acetamide] | 91% | 669 nM
